Reference: ChEMBL document CHEMBL5154901, “Development of Predictive Classification Models for Whole Cell Antimycobacterial Activity of Benzothiazinones” (J Med Chem, 2022)
In brackets after ≈: the same amount, converted by molar mass.

Legend:
[1] = Metabolic stability in human liver microsomes at 20 uM assessed as half life measured up to 90 mins by LC-HRMS analysis; format: ADME, Microsome
[2] = Metabolic stability in human liver microsomes at 20 uM assessed as intrinsic clearance measured up to 90 mins by LC-HRMS analysis; format: ADME, Microsome; details: read-out: CLH
[3] = Cytotoxicity against human HeLa cells assessed as reduction in cell viability incubated for 72 hrs by methylene blue staining based colorimetric assay; format: toxicity
Mycolicibacterium vaccae = assay: Antimycobacterial activity against Mycobacterium vaccae (JMRC:STI:10670) assessed as reduction in bacterial growth incubated for 42 hrs by serial dilution method; format: functional; details: Mycolicibacterium vaccae, JMRC:STI:10670, read-out: MIC

| half-life at 20 µM [1] | microsomal CLint at 20 µM [2] | MIC (Mycolicibacterium vaccae) | Compound | CC50 at 72 h [3] |
| --- | --- | --- | --- | --- |
| 88.9 min | 15.8 µL/min/mg | 0.0061 µM (≈ 0.0031 µg/mL) | CN(C(=O)CN1CCN(c2nc(=O)c3cc(C(F)(F)F)cc([N+](=O)[O-])c3s2)CC1)c1ccccc1 | 70.3 µM |
| 43.6 min | 32.1 µL/min/mg |  | O=c1nc(N2CCN(Cc3ccc(OC(F)(F)F)cc3)CC2)sc2c([N+](=O)[O-])cc(C(F)(F)F)cc12 |  |
| 45.3 min | 30.9 µL/min/mg |  | O=c1nc(N2CCN(CC(F)(F)c3ccc(F)c(F)c3)CC2)sc2c([N+](=O)[O-])cc(C(F)(F)F)cc12 |  |
| 88.9 min | 22.4 µL/min/mg |  | O=c1nc(N2CCN(C(c3ccccc3)C(F)(F)F)CC2)sc2c([N+](=O)[O-])cc(C(F)(F)F)cc12 (stereo not drawn) |  |
|  |  | 0.0599 µM (≈ 0.025 µg/mL) | CN(CC1(CO)CCCC1)c1nc(=O)c2cc(C(F)(F)F)cc([N+](=O)[O-])c2s1 | > 120 µM |
|  |  | 0.0838 µM (≈ 0.039 µg/mL) | O=c1nc(N2CCn3cc(C(F)(F)F)nc3C2)sc2c([N+](=O)[O-])cc(C(F)(F)F)cc12 | > 107 µM |
|  |  | 0.479 µM (≈ 0.25 µg/mL) | O=C(CN1CCN(c2nc(=O)c3cc(C(F)(F)F)cc([N+](=O)[O-])c3s2)CC1)NCCc1ccccc1 | 87.8 µM |
| 60.3 min | 23.2 µL/min/mg |  | N#Cc1cccc(CN2CCN(c3nc(=O)c4cc(C(F)(F)F)cc([N+](=O)[O-])c4s3)CC2)c1 |  |
|  |  | 0.0554 µM (≈ 0.025 µg/mL) | Cc1ccc([C@@]2(O)CCN(c3nc(=O)c4cc(C(F)(F)F)cc([N+](=O)[O-])c4s3)C2)cc1 | > 111 µM |
|  |  | 0.0591 µM (≈ 0.025 µg/mL) | COc1ccc2c(c1)CN(c1nc(=O)c3cc(C(F)(F)F)cc([N+](=O)[O-])c3s1)C2 | > 118 µM |
| 103 min | 13.5 µL/min/mg | 0.007 µM (≈ 0.0031 µg/mL) | O=c1nc(N2CCN(CC(F)(F)F)CC2)sc2c([N+](=O)[O-])cc(C(F)(F)F)cc12 | > 113 µM |
| 54.6 min | 25.7 µL/min/mg | 0.0049 µM (≈ 0.00241 µg/mL) | O=c1nc(N2CCn3cc(-c4ccc(F)cc4)nc3C2)sc2c([N+](=O)[O-])cc(C(F)(F)F)cc12 | > 102 µM |
| 99 min | 14.1 µL/min/mg | 0.0087 µM (≈ 0.00401 µg/mL) | N#Cc1ccccc1N1CCN(c2nc(=O)c3cc(C(F)(F)F)cc([N+](=O)[O-])c3s2)CC1 | > 108 µM |
|  |  | 0.0376 µM (≈ 0.025 µg/mL) | CN1CCN(C(=O)C(F)(F)C(F)(F)C(F)(F)C(=O)N2CCN(c3nc(=O)c4cc(C(F)(F)F)cc([N+](=O)[O-])c4s3)CC2)CC1 | > 75.2 µM |
|  |  | 0.0626 µM (≈ 0.025 µg/mL) | CN(CC(F)(F)CO)c1nc(=O)c2cc(C(F)(F)F)cc([N+](=O)[O-])c2s1 | 109 µM |
|  |  | 0.0274 µM (≈ 0.016 µg/mL) | O=c1nc(N2CCN(S(=O)(=O)c3ccc(OC(F)(F)F)cc3)CC2)sc2c([N+](=O)[O-])cc(C(F)(F)F)cc12 | 31.5 µM |
|  |  | 0.0716 µM (≈ 0.026 µg/mL) | CN(CCCO)c1nc(=O)c2cc(C(F)(F)F)cc([N+](=O)[O-])c2s1 | 103 µM |
|  |  | 0.0286 µM (≈ 0.0125 µg/mL) | CCCCN(Cc1ccccc1)c1nc(=O)c2cc(C(F)(F)F)cc([N+](=O)[O-])c2s1 | > 114 µM |
|  |  | 0.0658 µM (≈ 0.031 µg/mL) | O=C(CN1CCN(c2nc(=O)c3cc(C(F)(F)F)cc([N+](=O)[O-])c3s2)CC1)N1CCCC1 | > 106 µM |
| 40.5 min | 34.5 µL/min/mg | 0.0115 µM (≈ 0.00622 µg/mL) | O=c1nc(N2CCC(OC3CCN(CC(F)(F)F)CC3)CC2)sc2c([N+](=O)[O-])cc(C(F)(F)F)cc12 | > 93 µM |
| 52.5 min | 26.7 µL/min/mg | 0.0069 µM (≈ 0.00311 µg/mL) | O=c1nc(N2CC[C@H](c3ccccc3)[C@@H](O)C2)sc2c([N+](=O)[O-])cc(C(F)(F)F)cc12 | 73.1 µM |
|  |  | 0.0321 µM (≈ 0.0125 µg/mL) | CCCCCCN(C)c1nc(=O)c2cc(C(F)(F)F)cc([N+](=O)[O-])c2s1 | 75.5 µM |

| Compound | half-life at 20 µM [1] | microsomal CLint at 20 µM [2] | MIC (Mycolicibacterium vaccae) | CC50 at 72 h [3] |
| --- | --- | --- | --- | --- |
| O=C(O)Cc1ccccc1Nc1c(Cl)cccc1Cl [DICLOFENAC] | 6.3 min | 222 µL/min/mg |  |  |
